The target in data set [1] is T1, human κ-opioid receptor (OPRK1) (Homo sapiens, UniProt P41145). Description: Forskolin-induced cAMP accumulation assay, KOR antagonist mode. Particulars: for KOR Antagonist %Imax ± SEM: versus EC90 of U50488H, Imax normalized to nor-BNI.
Data set [2] concerns the target T1, human κ-opioid receptor (OPRK1). Description: Forskolin-induced cAMP accumulation assay, KOR agonist mode. As to conditions: for Emax: CHO-K1, read-out: KOR Agonist %Emax ± SEM.
In data set [3] the target is T2, human δ-opioid receptor (OPRD1) (Homo sapiens, UniProt P41143). Description: Forskolin-induced cAMP accumulation assay, DOR agonist mode. As to conditions: for Emax: CHO-K1, read-out: DOR Agonist %Emax ± SEM.
T2 sequence (P41143 whole entry): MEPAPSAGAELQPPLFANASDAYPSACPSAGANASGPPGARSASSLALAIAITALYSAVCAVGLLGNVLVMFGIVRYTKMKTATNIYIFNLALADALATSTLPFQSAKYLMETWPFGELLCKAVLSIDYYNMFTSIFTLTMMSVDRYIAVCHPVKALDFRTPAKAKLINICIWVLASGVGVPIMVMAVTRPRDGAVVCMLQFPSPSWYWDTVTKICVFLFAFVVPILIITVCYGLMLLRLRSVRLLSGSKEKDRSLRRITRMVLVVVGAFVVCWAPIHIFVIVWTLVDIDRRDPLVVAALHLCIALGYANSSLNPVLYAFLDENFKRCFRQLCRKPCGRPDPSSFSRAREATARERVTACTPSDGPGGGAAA
The target in data set [4] is T3, human μ-opioid receptor (OPRM1) (Homo sapiens, UniProt P35372).
T3 construct: host or cells: cAMP Hunter CHO-K1
T3 sequence (P35372 whole entry): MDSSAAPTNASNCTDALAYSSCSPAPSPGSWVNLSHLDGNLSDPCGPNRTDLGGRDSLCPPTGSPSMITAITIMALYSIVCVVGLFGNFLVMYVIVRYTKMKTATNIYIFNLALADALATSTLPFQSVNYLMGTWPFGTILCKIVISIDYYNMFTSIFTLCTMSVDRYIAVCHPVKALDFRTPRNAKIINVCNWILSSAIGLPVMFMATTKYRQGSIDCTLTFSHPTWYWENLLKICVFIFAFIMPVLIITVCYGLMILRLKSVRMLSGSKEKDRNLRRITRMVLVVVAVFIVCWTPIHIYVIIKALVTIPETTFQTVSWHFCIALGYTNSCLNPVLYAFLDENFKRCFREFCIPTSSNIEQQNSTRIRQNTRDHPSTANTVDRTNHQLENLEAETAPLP
In words: cell-based. It counts as cell-based. Particulars: for EC50: MOR Agonist EC50 ± SEM; for Emax: read-out: MOR Agonist %Emax ± SEM.

Data set [5] has as its target T2, human δ-opioid receptor (OPRD1). In words: Forskolin-induced cAMP accumulation assay, DOR antagonist mode.

Data on eleven compounds can be found in article PMC10708259 (Molecules, 2023).

Where a name gives a salt, the structure may show the parent alone.

T1 sequence (P41145 whole entry): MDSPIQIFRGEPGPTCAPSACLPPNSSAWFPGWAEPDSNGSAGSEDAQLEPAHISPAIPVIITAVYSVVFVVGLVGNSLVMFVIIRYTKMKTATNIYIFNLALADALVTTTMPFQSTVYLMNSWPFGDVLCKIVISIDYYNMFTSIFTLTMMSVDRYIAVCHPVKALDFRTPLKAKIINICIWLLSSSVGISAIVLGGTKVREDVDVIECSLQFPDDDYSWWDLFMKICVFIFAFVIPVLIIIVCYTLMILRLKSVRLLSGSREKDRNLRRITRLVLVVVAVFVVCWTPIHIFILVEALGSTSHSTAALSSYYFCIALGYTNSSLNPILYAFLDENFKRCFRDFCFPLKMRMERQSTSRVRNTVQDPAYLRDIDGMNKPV

Compound `C[C@H]1[C@H]2Cc3ccc(O)cc3[C@]1(C)CCN2CCc1c[nH]c2ccccc12` [Compound 26, (1R,5R,9R)-3-(2-(1H-Indol-3-yl)ethyl)-6,11-dimethyl-1,2,3,4,5,6-hexahydro-2,6-methanobenzo[d]azocin-8-ol] yielded an IC50 in data set [1] of over 10000 nM. In addition, the EC50 was over 10000 nM in data set [2], 343 ± 35 nM in data set [3] and 12 nM in data set [4]. Also, the maximum response (Emax) was 91% in data set [3] and 102% in data set [4].
`CC1C2Cc3ccc(O)cc3C1(C)CCN2CCc1c(Cl)cccc1Cl` [Compound 22, (1R,5R,9R)-6,11-Dimethyl-3-(2,6-dichlorophenethyl)-1,2,3,4,5,6-hexahydro-2,6-methanobenzo[d]azocin-8-ol]: in data set [1], the half-inhibitory concentration (IC50) stood at 65 ± 24 nM and the “KOR Antagonist %Imax ± SEM” value is listed as 87 ± 7%. The 50% effective concentration (EC50) in data set [2] was over 10000 nM. For the same compound, in data set [3], the EC50 was found to be 59 ± 25 nM and the maximal effect (Emax) was 78%. In data set [4], the EC50 stood at 4 nM and the Emax is 99%.
For the compound `CC1C2Cc3ccc(O)cc3C1(C)CCN2CCc1ccccc1` [Compound 23, (1R,5R,9R)-6,11-Dimethyl-3-(phenethyl)-1,2,3,4,5,6-hexahydro-2,6-methanobenzo[d]azocin-8-ol], in data set [1], half-maximal inhibition (IC50) required 281 ± 94 nM and the “KOR Antagonist %Imax ± SEM” value is on record as 81 ± 5%. Also, in data set [2], the EC50 was determined as 3.4 ± 0.4 nM and the Emax is 25%. For the same compound, in data set [3], it took 4 ± 1 nM to reach a half-maximal effect (EC50) and the Emax is 85%. Besides, in data set [4], the concentration giving a half-maximal response (EC50) worked out at 0.27 nM and the Emax was 101%.
`CC1C2Cc3ccc(O)cc3C1(C)CCN2CCc1cccc(Br)c1` [Compound 13, (1R,5R,9R)-6,11-Dimethyl-3-(3-bromophenethyl)-1,2,3,4,5,6-hexahydro-2,6-methanobenzo[d]azocin-8-ol]: in data set [1], the midpoint of inhibition, the IC50, lay at 90 ± 37 nM and the “KOR Antagonist %Imax ± SEM” value is on record as 99 ± 2%. The EC50 in data set [2] is over 10000 nM. Besides, in data set [3], a half-maximal effect (EC50) was put at 110 ± 24 nM and the maximal response (Emax) was 51%. Further, in data set [4], the EC50 amounted to 18 nM and the maximal response (Emax) was 78%.
`CC1C2Cc3ccc(O)cc3C1(C)CCN2CCc1cccc(F)c1` [Compound 7, (1R,5R,9R)-6,11-Dimethyl-3-(3-fluorophenethyl)-1,2,3,4,5,6-hexahydro-2,6-methanobenzo[d]azocin-8-ol] registered an IC50 in data set [1] of 274 ± 83 nM. In data set [1], the “KOR Antagonist %Imax ± SEM” value is reported as 87 ± 2%. The concentration for a half-maximal effect (EC50) in data set [2] is over 10000 nM; in data set [3] it was 11 ± 4 nM; in data set [4], 0.6 nM. For the same compound, the Emax in data set [3] was 86%; in data set [4] it was 100%.
Turning to `CC1c2ccc(O)cc2[C@]2(C)CCN(CCc3ccccc3)[C@H]1[C@@H]2C` (single isomer, unassigned; (-)) [(−)-39], the IC50 in data set [1] was 731 ± 362 nM. In addition, the “KOR Antagonist %Imax ± SEM” value in data set [1] stood at 57 ± 5%. Further, the figures for the concentration for a half-maximal effect (EC50) in data set [2], in data set [3] and in data set [4] were 20.7 ± 6.1 nM, 12.6 ± 3.9 nM and 1.2 nM, respectively. The values for the Emax in data set [2], in data set [3] and in data set [4] were 38%, 91% and 102%, respectively.
On to `CC1C2Cc3ccc(O)cc3C1(C)CCN2CCc1ccccc1[N+](=O)[O-]` [Compound 5, (1R,5R,9R)-6,11-Dimethyl-3-(2-nitrophenethyl)-1,2,3,4,5,6-hexahydro-2,6-methanobenzo[d]azocin-8-ol], for which, in data set [1], inhibition was half-maximal at 717 ± 132 nM (IC50). In addition, the “KOR Antagonist %Imax ± SEM” value in data set [1] came out at 89 ± 5%. Further, the results for the EC50 in data set [2], in data set [3] and in data set [4] were 16 ± 4 nM, 37 ± 6 nM and 2.7 nM, respectively. The results for the maximal response (Emax) in data set [2], in data set [3] and in data set [4] were 23%, 73% and 101%, respectively.
With `C[C@H]1[C@H]2Cc3ccc(O)cc3[C@]1(C)CCN2CCc1ccc(F)cc1` [Compound 6, (2R,6R,11R)-6,11-Dimethyl-3-(4-fluorophenethyl)-1,2,3,4,5,6-hexahydro-2,6-methanobenzo[d]azocin-8-ol], in data set [1], the 50% inhibitory concentration (IC50) is 368 ± 92 nM and the “KOR Antagonist %Imax ± SEM” value was 71 ± 2%. Also, in data set [2], the response was half-maximal at 7 ± 3 nM (EC50) and the Emax was 34%. For the same compound, in data set [3], the EC50 is 12 ± 3 nM and the Emax was 73%. Also, in data set [4], the concentration for a half-maximal effect (EC50) turned out to be 1.8 nM and the Emax was 100%.
In the case of `C[C@H]1[C@H]2Cc3ccc(O)cc3[C@]1(C)CCN2CCC1CCN(C)CC1` [Compound 28, (1R,5R,9R)-6,11-Dimethyl-3-(2-(1-methylpiperidin-4-yl)ethyl)-1,2,3,4,5,6-hexahydro-2,6-methanobenzo[d]azocin-8-ol], the half-inhibitory concentration (IC50) in data set [1] and in data set [5] was over 10000 nM throughout. The EC50 in data set [2] is 0.05 ± 0.02 nM; in data set [3] it was over 10000 nM; in data set [4] it was over 10000 nM. The Emax in data set [2] was 15%. Further, the “MOR agonist potency / efficacy in words” value in data set [4] was “little or no potency”.
Turning to `CC1C2Cc3ccc(O)cc3C1(C)CCN2CCc1ccc([N+](=O)[O-])cc1` (as salt: HCl) [Compound 3, (1R,5R,9R)-6,11-Dimethyl-3-(4-nitrophenethyl)-1,2,3,4,5,6-hexahydro-2,6-methanobenzo[d]azocin-8-ol], the melting point is 273 to 274 °C (dec.).
Take `CC1C2Cc3ccc(O)cc3C1(C)CCN2CCc1cccc(Cl)c1` [Compound 16, (1R,5R,9R)-6,11-Dimethyl-3-(3-chlorophenethyl)-1,2,3,4,5,6-hexahydro-2,6-methanobenzo[d]azocin-8-ol]: in data set [1], 111 ± 43 nM corresponded to half-maximal inhibition (IC50) and the “KOR Antagonist %Imax ± SEM” value is 108 ± 10%. This compound also came in with an EC50 in data set [2] of over 10000 nM. Further, in data set [3], a half-maximal effect (EC50) was put at 93 ± 25 nM and the maximal effect (Emax) was 64%. Moreover, in data set [4], a half-maximal effect (EC50) was put at 13 nM and the maximum response (Emax) is 95%.
